Source: ChEMBL document CHEMBL1155538 (Bioorg Med Chem Lett, 2010)

How the values were obtained:
[1] = biological target: Sodium-dependent dopamine transporter (Homo sapiens, UniProt Q01959); assay: biochemical
[2] = biological target: Sodium-dependent serotonin transporter (Homo sapiens, UniProt P31645); assay: biochemical
[3] = biological target: Sodium-dependent noradrenaline transporter (Homo sapiens, UniProt P23975); assay: biochemical
[4] = biological target: Voltage-gated inwardly rectifying potassium channel KCNH2 (Homo sapiens, UniProt Q12809); assay: Displacement of [3H]dofetilide from human ERG
Chain of Voltage-gated inwardly rectifying potassium channel KCNH2 (Q12809 whole entry): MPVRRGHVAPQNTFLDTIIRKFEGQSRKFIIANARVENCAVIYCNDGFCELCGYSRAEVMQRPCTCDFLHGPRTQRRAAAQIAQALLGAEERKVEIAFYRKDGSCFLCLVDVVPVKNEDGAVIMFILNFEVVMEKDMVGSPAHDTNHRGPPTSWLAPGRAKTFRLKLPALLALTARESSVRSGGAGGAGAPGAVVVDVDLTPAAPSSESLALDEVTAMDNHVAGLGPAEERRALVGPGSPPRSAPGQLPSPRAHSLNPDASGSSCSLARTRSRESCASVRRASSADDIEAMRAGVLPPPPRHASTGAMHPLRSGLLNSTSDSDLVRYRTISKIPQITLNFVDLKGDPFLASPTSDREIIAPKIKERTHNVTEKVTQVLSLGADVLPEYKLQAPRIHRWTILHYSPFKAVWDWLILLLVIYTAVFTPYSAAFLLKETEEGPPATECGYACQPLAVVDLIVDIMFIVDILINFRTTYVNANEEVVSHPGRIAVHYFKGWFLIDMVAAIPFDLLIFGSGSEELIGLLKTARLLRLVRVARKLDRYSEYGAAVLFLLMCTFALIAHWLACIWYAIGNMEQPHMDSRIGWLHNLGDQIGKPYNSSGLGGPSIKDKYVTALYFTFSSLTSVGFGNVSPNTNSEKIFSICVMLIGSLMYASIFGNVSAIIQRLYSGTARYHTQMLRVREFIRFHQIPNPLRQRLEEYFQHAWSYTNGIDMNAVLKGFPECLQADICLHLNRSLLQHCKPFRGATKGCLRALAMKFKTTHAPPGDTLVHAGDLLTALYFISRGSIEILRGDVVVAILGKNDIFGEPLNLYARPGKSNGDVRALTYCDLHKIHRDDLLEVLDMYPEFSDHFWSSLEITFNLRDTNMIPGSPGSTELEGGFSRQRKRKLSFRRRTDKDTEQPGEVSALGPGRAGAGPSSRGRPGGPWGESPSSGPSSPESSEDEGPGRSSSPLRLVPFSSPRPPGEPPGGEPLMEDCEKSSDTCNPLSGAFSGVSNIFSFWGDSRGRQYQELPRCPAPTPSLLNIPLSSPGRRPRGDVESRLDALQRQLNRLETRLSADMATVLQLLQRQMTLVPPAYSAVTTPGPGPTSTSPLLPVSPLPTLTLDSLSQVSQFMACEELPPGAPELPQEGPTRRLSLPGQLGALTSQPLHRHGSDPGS

[5] = Inhibition of tetrodotoxin-sensitive sodium channel
[6] = Half life in human liver microsomes; type: ADME, Microsome

Chain of Sodium-dependent serotonin transporter (P31645 whole entry): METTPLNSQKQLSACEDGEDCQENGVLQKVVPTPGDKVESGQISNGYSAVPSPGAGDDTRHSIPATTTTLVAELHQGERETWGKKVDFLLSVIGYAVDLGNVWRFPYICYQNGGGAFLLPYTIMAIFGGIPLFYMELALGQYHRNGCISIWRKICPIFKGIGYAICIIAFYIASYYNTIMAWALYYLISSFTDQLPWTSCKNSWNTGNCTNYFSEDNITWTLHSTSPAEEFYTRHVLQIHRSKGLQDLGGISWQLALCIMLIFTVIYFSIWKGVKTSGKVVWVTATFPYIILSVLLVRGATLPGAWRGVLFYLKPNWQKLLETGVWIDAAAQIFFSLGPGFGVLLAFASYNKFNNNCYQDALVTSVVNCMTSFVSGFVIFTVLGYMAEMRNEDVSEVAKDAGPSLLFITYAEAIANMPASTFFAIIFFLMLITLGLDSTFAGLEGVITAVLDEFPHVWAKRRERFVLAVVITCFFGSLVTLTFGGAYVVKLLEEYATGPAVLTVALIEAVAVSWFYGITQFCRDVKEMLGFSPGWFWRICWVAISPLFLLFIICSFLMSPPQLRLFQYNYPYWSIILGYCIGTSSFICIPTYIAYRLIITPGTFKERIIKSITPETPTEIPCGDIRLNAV
Chain of Sodium-dependent noradrenaline transporter (P23975 whole entry): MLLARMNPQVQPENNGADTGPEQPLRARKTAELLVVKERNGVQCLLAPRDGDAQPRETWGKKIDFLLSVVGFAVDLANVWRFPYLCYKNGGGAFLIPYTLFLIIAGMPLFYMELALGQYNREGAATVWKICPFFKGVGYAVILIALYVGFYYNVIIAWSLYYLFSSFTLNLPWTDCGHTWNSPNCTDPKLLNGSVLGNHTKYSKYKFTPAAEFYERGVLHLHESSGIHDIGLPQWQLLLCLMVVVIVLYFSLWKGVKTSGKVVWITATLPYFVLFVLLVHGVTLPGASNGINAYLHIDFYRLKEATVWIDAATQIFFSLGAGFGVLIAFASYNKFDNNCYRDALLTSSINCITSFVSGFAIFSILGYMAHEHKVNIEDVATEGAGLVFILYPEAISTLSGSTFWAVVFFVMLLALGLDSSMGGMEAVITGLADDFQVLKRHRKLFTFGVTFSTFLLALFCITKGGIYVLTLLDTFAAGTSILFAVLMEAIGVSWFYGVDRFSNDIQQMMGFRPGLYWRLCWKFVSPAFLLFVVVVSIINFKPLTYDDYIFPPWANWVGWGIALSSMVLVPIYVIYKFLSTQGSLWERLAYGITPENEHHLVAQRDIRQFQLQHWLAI
Chain of Sodium-dependent dopamine transporter (Q01959 whole entry): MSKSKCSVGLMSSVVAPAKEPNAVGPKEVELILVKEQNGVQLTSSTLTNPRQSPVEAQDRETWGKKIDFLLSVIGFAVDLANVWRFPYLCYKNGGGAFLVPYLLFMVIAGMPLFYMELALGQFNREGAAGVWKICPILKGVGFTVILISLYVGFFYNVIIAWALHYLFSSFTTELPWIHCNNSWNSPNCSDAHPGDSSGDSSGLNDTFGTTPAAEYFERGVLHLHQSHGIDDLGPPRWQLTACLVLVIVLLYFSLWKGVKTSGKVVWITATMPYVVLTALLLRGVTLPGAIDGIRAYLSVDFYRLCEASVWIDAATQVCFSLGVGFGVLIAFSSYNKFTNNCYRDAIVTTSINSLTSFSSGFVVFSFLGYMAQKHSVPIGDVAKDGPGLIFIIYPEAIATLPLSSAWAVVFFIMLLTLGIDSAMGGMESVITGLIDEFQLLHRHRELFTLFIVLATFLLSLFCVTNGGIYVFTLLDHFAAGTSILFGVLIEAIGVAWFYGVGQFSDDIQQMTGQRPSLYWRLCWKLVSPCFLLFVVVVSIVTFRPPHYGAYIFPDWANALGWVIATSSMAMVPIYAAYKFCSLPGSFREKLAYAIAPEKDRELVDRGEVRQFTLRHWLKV

c1ccc(C(Cc2cccc3c2OCC3)N2CCNCC2)cc1 (stereo unspecified)
Ki [1]: > 3.16 µM | Ki [2]: 0.008 µM | Ki [3]: 0.34 µM | IC50 [4]: 21.4 µM

CC(C)CN(C(=O)c1cccc(Cl)c1Cl)[C@H]1CCNC1
IC50 [5]: 8.55 µM | half-life [6]: > 2 h
